Literature values, collected in patent US20240401031A1, “Platform Using iPSC-Derived Cardiomyocytes Carrying Gene Variants as Models of Cardiac Disease and Drug-Response” (SRI INTERNATIONAL, priority 2021, published 2024).

Settings: source CredibleMeds

SMILES | Risk (Torsade de Pointes)
C[C@@H](Cc1ccccc1)NC(=O)[C@@H](N)CCCCN [Lisdexamfetamine] | (SR)
[Li] [Lithium] | (PR)
CC(Oc1c(Cl)cccc1Cl)C1=NCCN1 (stereo not drawn) [Lofexidine] | (PR)
O=C1[C@@H]2[C@H]3CC[C@H](C3)[C@@H]2C(=O)N1C[C@@H]1CCCC[C@H]1CN1CCN(c2nsc3ccccc23)CC1 [Lurasidone] | (PR)
CNCCCC12CCC(c3ccccc31)c1ccccc12 [Maprotiline] | (PR)
CN1CCCCC1CCN1c2ccccc2Sc2ccc([S+](C)[O-])cc21 (stereo not drawn) [Mesoridazine] | (KR)
CCC(=O)C(CC(C)N(C)C)(c1ccccc1)c1ccccc1 (stereo not drawn) [Methadone] | (KR)
CN[C@@H](C)Cc1ccccc1 [Methamphetamine] | (SR)
CCN(CC)CCNC(=O)c1cc(Cl)c(N)cc1OC [Metoclopramide] | (CR)
Cc1ccccc1N1C(=O)c2cc(S(N)(=O)=O)c(Cl)cc2NC1C (stereo not drawn) [Metolazone] | (CR)
CN1CCN2c3ccccc3Cc3ccccc3C2C1 (stereo not drawn) [Mianserin] | (PR)
COc1ccc(OC)c(C(O)CNC(=O)CN)c1 (stereo not drawn) [Midodrine] | (SR)
CO[C@@H]1[C@H](N(C)C(=O)c2ccccc2)C[C@H]2O[C@]1(C)n1c3ccccc3c3c4c(c5c6ccccc6n2c5c31)C(=O)NC4 [Midostaurin] | (PR)
Nc1nc(CC(=O)Nc2ccc(CCNC[C@H](O)c3ccccc3)cc2)cs1 [Mirabegron] | (PR)
Cc1c(O)cccc1C(=O)N[C@@H](CSc1ccccc1)[C@H](O)CN1C[C@H]2CCCC[C@H]2C[C@H]1C(=O)NC(C)(C)C [Nelfinavir] | (CR)
CCn1cc(C(=O)O)c(=O)c2cc(F)c(N3CCNCC3)cc21 [Norfloxacin] | (PR)
CNCCC=C1c2ccccc2CCc2ccccc21 [Nortriptyline] | (PR)
COc1ccsc1CNCC[C@@]1(c2ccccn2)CCOC2(CCCC2)C1 [Oliceridine] | (PR)
COc1ccc(CC(C)(C)NC[C@H](O)c2cc(O)cc3c2OCC(=O)N3)cc1 [Olodaterol] | (SR)
COc1ccc2[nH]c([S+]([O-])Cc3ncc(C)c(OC)c3C)nc2c1 (stereo not drawn) [Omeprazole] | (CR)
Cc1nccn1CC1CCc2c(c3ccccc3n2C)C1=O (stereo not drawn) [Ondansetron] | (KR)
O=C1[O][Pt]2([NH][C@@H]3CCCC[C@H]3[NH]2)[O]C1=O [Oxaliplatin] | (KR)
Cc1cc(C(C)(C)C)c(O)c(C)c1CC1=NCCN1 [Oxymetazoline] | (SR)
CC(C)Oc1ccc(-c2nc(-c3cccc4c3CC[C@@H]4NCCO)no2)cc1C#N [Ozanimod] | (PR)
Cc1nc2n(c(=O)c1CCN1CCC(c3noc4cc(F)ccc34)CC1)CCCC2O (stereo not drawn) [Paliperidone] | (PR)
O=C1c2cccc3c2[C@H](CCC3)CN1[C@@H]1CN2CCC1CC2 [Palonosetron] | (PR)

SMILES | Risk (Torsade de Pointes)
Cc1[nH]c2ccccc2c1CCNCc1ccc(/C=C/C(=O)NO)cc1 [Panobinostat] | (PR)
COc1ccnc(C[S+]([O-])c2nc3ccc(OC(F)F)cc3[nH]2)c1OC (stereo not drawn) [Pantoprazole] | (CR)
COc1ccc(Cc2nccc3cc(OC)c(OC)cc23)cc1OC [Papaverine] | (KR)
Fc1ccc([C@@H]2CCNC[C@H]2COc2ccc3c(c2)OCO3)cc1 [Paroxetine] | (CR)
Cc1ccc(Nc2nccc(N(C)c3ccc4c(C)n(C)nc4c3)n2)cc1S(N)(=O)=O [Pazopanib] | (PR)
N=C(N)c1ccc(OCCCCCOc2ccc(C(=N)N)cc2)cc1 [Pentamidine] | (KR)
FC(F)(F)C(F)(F)C(F)(F)F [Perflutren] | (PR)
CC(C)(N)Cc1ccccc1 [Phentermine] | (SR)
CNC[C@H](O)c1cccc(O)c1 [Phenylephrine] | (SR)
CC(N)C(O)c1ccccc1 (stereo not drawn) [Phenylpropanolamine] | (SR)
Cc1cccc(C)c1NC(=O)CC12CCCN1CCC2 [Pilsicainide] | (PR)
CC(C)COc1ccc(CNC(=O)N(Cc2ccc(F)cc2)C2CCN(C)CC2)cc1 [Pimavanserin] | (PR)
O=c1[nH]c2ccccc2n1C1CCN(CCCC(c2ccc(F)cc2)c2ccc(F)cc2)CC1 [Pimozide] | (KR)
NC(=O)C1(N2CCCCC2)CCN(CCCC(=O)c2ccc(F)cc2)CC1 [Pipamperone] | (PR)
Clc1ccc(CCCOCCCN2CCCCC2)cc1 [Pitolisant] | (PR)
CCC/N=C1\S/C(=C\c2ccc(OC[C@H](O)CO)c(Cl)c2)C(=O)N1c1ccccc1C [Ponesimod] | (PR)
CC[C@@H]([C@H](C)O)n1ncn(-c2ccc(N3CCN(c4ccc(OC[C@@H]5CO[C@@](Cn6cncn6)(c6ccc(F)cc6F)C5)cc4)CC3)cc2)c1=O [Posaconazole] | (CR)
O=[N+]([O-])c1cn2c(n1)OC[C@@H](OCc1ccc(OC(F)(F)F)cc1)C2 [Pretomanid] | (PR)
COc1cc(NC(C)CCCN)c2ncccc2c1 (stereo not drawn) [Primaquine] | (PR)
CC(CN1c2ccccc2Sc2ccccc21)N(C)C (stereo not drawn) [Promethazine] | (PR)
CN(C)CCCN1c2ccccc2Sc2cccnc21 [Prothipendyl] | (PR)
OCCOCCN1CCN(C2=Nc3ccccc3Sc3ccccc32)CC1 [Quetiapine] | (CR)
C=C[C@H]1C[N@@]2CC[C@H]1C[C@@H]2[C@@H](O)c1ccnc2ccc(OC)cc12 [Quinidine] | (KR)
C=C[C@H]1C[N@@]2CC[C@H]1C[C@H]2[C@H](O)c1ccnc2ccc(OC)cc12 [Quinine] | (CR)
COc1ccccc1OCC(O)CN1CCN(CC(=O)Nc2c(C)cccc2C)CC1 (stereo not drawn) [Ranolazine] | (CR)
CONC(=O)Nc1ccc(-c2sc3c(c2CN(C)C)c(=O)n(-c2ccc(OC)nn2)c(=O)n3Cc2c(F)cccc2F)cc1 [Relugolix] | (PR)

SMILES | Risk (Torsade de Pointes)
COC(=O)CC[C@@H]1N=C(c2ccccn2)c2cc(Br)ccc2-n2c(C)cnc21 [Remimazolam] | (PR)
CN(C)C(=O)c1cc2cnc(Nc3ccc(N4CCNCC4)cn3)nc2n1C1CCCC1 [Ribociclib] | (PR)
Cc1cc(/C=C/C#N)cc(C)c1Nc1ccnc(Nc2ccc(C#N)cc2)n1 [Rilpivirine] | (PR)
CC(NCCc1ccc(O)cc1)C(O)c1ccc(O)cc1 (stereo not drawn) [Ritodrine] | (SR)
CC[C@H]1OC(=O)[C@H](C)[C@@H](O[C@H]2C[C@@](C)(OC)[C@@H](O)[C@H](C)O2)[C@H](C)[C@@H](O[C@@H]2O[C@H](C)C[C@H](N(C)C)[C@H]2O)[C@](C)(O)C[C@@H](C)/C(=N\OCOCCOC)[C@H](C)[C@@H](O)[C@]1(C)O [Roxithromycin] | (KR)
CNCc1ccc(-c2[nH]c3cc(F)cc4c3c2CCNC4=O)cc1 [Rucaparib] | (PR)
OCc1cc(C(O)CNCCCCCCOCCCCc2ccccc2)ccc1O (stereo not drawn) [Salmeterol] | (SR)
COc1ccc(CN2C3CC2CN(c2ccc(-c4cc(OCC(C)(C)O)cn5ncc(C#N)c45)cn2)C3)cn1 [Selpercatinib] | (PR)
O=C1NCCN1CCN1CCC(c2cn(-c3ccc(F)cc3)c3ccc(Cl)cc23)CC1 [Sertindole] | (KR)
CN[C@H]1CC[C@@H](c2ccc(Cl)c(Cl)c2)c2ccccc21 [Sertraline] | (CR)
FCOC(C(F)(F)F)C(F)(F)F [Sevoflurane] | (KR)
CCc1cc(/C(C)=N/OCc2ccc(C3CCCCC3)c(C(F)(F)F)c2)ccc1CN1CC(C(=O)O)C1 [Siponimod] | (PR)
CNC(=O)c1cc(Oc2ccc(NC(=O)Nc3ccc(Cl)c(C(F)(F)F)c3)cc2)ccn1 [Sorafenib] | (PR)
C[C@@H]1CN(c2c(F)c(N)c3c(=O)c(C(=O)O)cn(C4CC4)c3c2F)C[C@H](C)N1 [Sparfloxacin] | (KR)
CCN1CCCC1CNC(=O)c1cc(S(N)(=O)=O)ccc1OC (stereo not drawn) [Sulpiride] | (KR)
CCN1CCCC1CNC(=O)c1cc(S(=O)(=O)CC)ccc1OC (stereo not drawn) [Sultopride] | (KR)
CCN(CC)CCNC(=O)c1c(C)[nH]c(/C=C2\C(=O)Nc3ccc(F)cc32)c1C [Sunitinib] | (PR)
C=CC[C@@H]1/C=C(\C)C[C@H](C)C[C@H](OC)[C@H]2O[C@@](O)(C(=O)C(=O)N3CCCC[C@H]3C(=O)O[C@H](/C(C)=C/[C@@H]3CC[C@@H](O)[C@H](OC)C3)[C@H](C)[C@@H](O)CC1=O)[C@H](C)C[C@@H]2OC [Tacrolimus] | (PR)
CCN(c1cc(-c2ccc(CN3CCOCC3)cc2)cc(C(=O)NCc2c(C)cc(C)[nH]c2=O)c1C)C1CCOCC1 [Tazemetostat] | (PR)
CCC[C@H](NC(=O)[C@@H]1[C@H]2CCC[C@H]2CN1C(=O)[C@@H](NC(=O)[C@@H](NC(=O)c1cnccn1)C1CCCCC1)C(C)(C)C)C(=O)C(=O)NC1CC1 [Telaprevir] | (CR)
CC[C@H]1OC(=O)[C@H](C)C(=O)[C@H](C)[C@@H](O[C@@H]2O[C@H](C)C[C@H](N(C)C)[C@H]2O)[C@](C)(OC)C[C@@H](C)C(=O)[C@H](C)[C@H]2N(CCCCn3cnc(-c4cccnc4)c3)C(=O)O[C@]12C [Telithromycin] | (PR)
CC(C)(C)NCC(O)c1cc(O)cc(O)c1 (stereo not drawn) [Terbutaline] | (SR)
CC(CC(c1ccccc1)c1ccccc1)NC(C)(C)C (stereo not drawn) [Terodiline] | (KR)
COc1cc2c(cc1OC)C1CC(=O)C(CC(C)C)CN1CC2 (stereo not drawn) [Tetrabenazine] | (PR)
CCN(CC)CCNC(=O)c1cc(S(C)(=O)=O)ccc1OC [Tiapride] | (PR)
CN(C)CCOc1ccc(/C(=C(/CCCl)c2ccccc2)c2ccccc2)cc1 [Toremifene] | (PR)
